This note sets out measurements from ChEMBL document CHEMBL4828709, “Discovery of 2,4-pyrimidinediamine derivatives as potent dual inhibitors of ALK and HDAC” (Eur J Med Chem, 2021).

A word on the IC50: it is the point on the concentration scale where inhibition reaches its midpoint. What is called AUC(0-inf) is total exposure, with the tail of the curve extrapolated. High values mean more exposure, low ones less exposure.

Series [1] deals with Insulin receptor (Homo sapiens) (UniProt P06213). Kind of series: Inhibition of human InsR at 1 uM.
Chain of Insulin receptor (Homo sapiens) (P06213 28-758 limits assumed): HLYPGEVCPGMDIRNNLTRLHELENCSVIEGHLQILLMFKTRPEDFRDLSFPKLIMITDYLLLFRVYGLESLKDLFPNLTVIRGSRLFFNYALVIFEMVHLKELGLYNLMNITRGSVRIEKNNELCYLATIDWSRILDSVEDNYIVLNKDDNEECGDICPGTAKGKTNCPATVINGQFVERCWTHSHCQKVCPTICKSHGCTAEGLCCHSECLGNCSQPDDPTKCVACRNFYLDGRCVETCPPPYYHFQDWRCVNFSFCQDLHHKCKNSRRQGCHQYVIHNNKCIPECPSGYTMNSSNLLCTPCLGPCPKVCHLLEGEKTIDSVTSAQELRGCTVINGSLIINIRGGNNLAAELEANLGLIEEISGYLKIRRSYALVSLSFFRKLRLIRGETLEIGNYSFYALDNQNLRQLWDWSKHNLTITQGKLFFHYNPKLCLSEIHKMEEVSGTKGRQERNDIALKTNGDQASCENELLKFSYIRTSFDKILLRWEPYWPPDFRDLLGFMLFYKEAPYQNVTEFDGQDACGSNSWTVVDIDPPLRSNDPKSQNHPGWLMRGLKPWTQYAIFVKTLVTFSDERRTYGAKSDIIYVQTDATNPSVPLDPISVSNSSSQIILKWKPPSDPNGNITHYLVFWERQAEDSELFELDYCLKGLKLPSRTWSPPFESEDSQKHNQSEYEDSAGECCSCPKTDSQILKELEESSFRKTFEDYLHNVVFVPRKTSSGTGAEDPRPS
Chain of Insulin receptor (Homo sapiens) (P06213 763-1382 limits assumed): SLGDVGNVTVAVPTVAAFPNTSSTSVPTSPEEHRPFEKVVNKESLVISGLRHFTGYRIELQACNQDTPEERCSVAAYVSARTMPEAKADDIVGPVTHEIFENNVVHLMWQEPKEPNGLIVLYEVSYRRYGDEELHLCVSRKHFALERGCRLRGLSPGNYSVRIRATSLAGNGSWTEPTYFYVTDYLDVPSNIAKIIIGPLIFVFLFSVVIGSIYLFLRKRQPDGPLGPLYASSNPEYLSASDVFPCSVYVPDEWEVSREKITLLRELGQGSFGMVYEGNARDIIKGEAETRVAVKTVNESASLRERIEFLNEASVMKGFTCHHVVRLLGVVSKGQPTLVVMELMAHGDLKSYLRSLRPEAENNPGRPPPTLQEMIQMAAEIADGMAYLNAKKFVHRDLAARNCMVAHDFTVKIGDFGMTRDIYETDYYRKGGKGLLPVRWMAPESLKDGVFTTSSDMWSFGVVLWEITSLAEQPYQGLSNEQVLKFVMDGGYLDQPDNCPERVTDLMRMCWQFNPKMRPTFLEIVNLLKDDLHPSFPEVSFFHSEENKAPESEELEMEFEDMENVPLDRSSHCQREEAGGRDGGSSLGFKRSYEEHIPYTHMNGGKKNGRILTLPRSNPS
Series [2] deals with T1, ALK tyrosine kinase receptor (Homo sapiens, UniProt Q9UM73). Nature of the series: Inhibition of human ALK in human SH-SY5Y cells assessed as inhibition of ALK phosphorylation at Tyr1278 residue at 4 uM measured after 24 hrs by Western blot assay. The series is classed as cell-based. (In western blotting, separated proteins are transferred to a membrane and probed.)
T1 sequence (Q9UM73 19-1620 limits assumed): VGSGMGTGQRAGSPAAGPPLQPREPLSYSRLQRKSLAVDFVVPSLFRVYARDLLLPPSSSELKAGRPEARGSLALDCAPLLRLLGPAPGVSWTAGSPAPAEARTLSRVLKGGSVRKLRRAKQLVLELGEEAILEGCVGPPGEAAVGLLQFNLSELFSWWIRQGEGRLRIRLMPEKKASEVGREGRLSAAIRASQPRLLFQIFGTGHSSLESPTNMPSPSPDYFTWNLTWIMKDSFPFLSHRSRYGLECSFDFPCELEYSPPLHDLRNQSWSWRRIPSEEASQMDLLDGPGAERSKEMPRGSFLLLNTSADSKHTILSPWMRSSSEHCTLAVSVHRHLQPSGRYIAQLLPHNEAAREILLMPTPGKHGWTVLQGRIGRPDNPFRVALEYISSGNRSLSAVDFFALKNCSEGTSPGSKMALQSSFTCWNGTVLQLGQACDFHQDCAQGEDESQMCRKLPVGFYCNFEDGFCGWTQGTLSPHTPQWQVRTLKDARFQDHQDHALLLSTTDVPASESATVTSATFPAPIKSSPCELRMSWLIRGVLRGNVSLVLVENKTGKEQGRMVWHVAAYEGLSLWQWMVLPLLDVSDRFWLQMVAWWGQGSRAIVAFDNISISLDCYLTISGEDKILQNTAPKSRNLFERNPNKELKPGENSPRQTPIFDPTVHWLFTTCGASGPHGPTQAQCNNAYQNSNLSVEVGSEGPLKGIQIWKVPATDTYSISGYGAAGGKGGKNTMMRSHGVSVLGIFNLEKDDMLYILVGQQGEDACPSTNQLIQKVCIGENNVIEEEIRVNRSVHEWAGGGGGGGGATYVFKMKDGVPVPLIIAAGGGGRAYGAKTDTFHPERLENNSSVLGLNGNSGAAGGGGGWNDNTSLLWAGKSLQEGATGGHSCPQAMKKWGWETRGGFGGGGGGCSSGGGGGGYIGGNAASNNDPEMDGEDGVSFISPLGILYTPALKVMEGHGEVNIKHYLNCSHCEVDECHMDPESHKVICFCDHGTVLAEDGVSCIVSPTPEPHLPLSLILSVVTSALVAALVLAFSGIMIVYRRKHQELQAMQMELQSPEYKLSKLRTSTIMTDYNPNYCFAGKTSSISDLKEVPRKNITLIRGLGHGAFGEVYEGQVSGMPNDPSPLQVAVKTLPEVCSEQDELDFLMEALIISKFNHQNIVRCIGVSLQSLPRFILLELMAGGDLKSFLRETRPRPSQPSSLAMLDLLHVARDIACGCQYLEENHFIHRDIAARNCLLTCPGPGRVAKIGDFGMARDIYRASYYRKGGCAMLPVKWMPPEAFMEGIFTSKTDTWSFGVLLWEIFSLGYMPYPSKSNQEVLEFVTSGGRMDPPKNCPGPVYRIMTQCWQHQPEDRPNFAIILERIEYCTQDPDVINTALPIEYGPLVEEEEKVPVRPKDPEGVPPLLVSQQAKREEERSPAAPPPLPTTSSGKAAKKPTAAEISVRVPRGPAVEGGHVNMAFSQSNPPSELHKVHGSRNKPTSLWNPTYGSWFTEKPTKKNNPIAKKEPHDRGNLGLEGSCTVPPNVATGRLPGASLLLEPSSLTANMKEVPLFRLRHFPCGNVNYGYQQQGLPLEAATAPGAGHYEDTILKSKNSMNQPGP
Series [3] has as its target Insulin-like growth factor 1 receptor (Homo sapiens) (UniProt P08069). Nature of the series: Inhibition of human IGF1R at 1 uM.
A further series has as its system SH-SY5Y. Nature of the series: Induction of apoptosis in human SH-SY5Y cells assessed as viable cells at 4 uM measured after 24 hrs by Annexin V-FITC/PI staining based flowcytometry (reference value: 77.05%). Conditions: read-out: Activity. The series is classed as functional.
For series [4], the system named is MDA-MB-231. Nature of the series: cells. The class given is functional, cell-based. The following applies: Homo sapiens, MDA-MB-231, 72 h.
Description: Antiproliferative activity against human MDA-MB-231 cells assessed as inhibition of cell proliferation measured after 72 hrs by CCK8 assay
Series [5] has as its system ALK tyrosine kinase receptor (Homo sapiens), Q9UM73 [G1202R]. Nature of the series: Potency index, ratio of ceritinib IC50 to test compound IC50 for inhibition of ALK G1202R mutant (unknown origin).
Series [6] relates to MDA-MB-231. Nature of the series: Induction of apoptosis in human MDA-MB-231 cells assessed as early apoptotic cells at 4 uM measured after 24 hrs by Annexin V-FITC/PI staining based flowcytometry (reference value: 0.64%). The class given is functional.
The target of series [7] is T1, ALK tyrosine kinase receptor. Kind of series: Inhibition of human ALK in human SH-SY5Y cells assessed as inhibition of ERK phosphorylation at Thr202/Tyr204 residue measured after 24 hrs by Western blot assay. The series is classed as cell-based. The following applies: dose 1-4 µM.
For series [8] the target is unchanged. Kind of series: Inhibition of ALK in human MDA-MB-231 cells assessed as inhibition of AKT phosphorylation at Ser473 residue at 4 uM measured after 24 hrs by Western blot assay. The class given is cell-based.
The target is the same in series [9]. Kind of series: Inhibition of ALK in human MDA-MB-231 cells assessed as inhibition of ERK phosphorylation at Thr202/Tyr204 residue at 4 uM measured after 24 hrs by Western blot assay. The series is classed as cell-based.
The nature of series [10]: AUC (0 to infinity) in Sprague-Dawley rat at 1 mg/kg, iv measured for 12 hrs by LC-MS/MS analysis. The series is classed as ADME, organism-based. Also noted: route intravenous, dose 1 mg/kg, time 12 hrs. The following applies: in vivo.
The target of another series is Histone deacetylase 2 (Homo sapiens, UniProt Q92769).
Chain of Histone deacetylase 2 (Q92769 whole entry): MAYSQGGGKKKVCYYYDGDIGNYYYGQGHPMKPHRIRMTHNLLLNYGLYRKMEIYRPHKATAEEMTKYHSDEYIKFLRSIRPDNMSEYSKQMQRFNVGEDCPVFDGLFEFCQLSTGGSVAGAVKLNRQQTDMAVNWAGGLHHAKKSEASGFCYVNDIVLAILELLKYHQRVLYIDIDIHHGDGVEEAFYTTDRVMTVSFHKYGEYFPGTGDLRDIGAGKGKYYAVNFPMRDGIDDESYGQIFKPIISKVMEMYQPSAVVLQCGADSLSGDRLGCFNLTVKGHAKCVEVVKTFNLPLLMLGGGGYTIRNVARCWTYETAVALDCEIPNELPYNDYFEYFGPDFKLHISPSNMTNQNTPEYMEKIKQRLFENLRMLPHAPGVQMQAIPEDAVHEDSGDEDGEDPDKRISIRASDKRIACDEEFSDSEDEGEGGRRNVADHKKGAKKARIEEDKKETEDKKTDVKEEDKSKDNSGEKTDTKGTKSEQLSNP

The source made the active and inactive calls. The rule behind the calls is not given here.

Chain of ALK tyrosine kinase receptor (Homo sapiens), Q9UM73 [G1202R] (Q9UM73 whole entry G1202R): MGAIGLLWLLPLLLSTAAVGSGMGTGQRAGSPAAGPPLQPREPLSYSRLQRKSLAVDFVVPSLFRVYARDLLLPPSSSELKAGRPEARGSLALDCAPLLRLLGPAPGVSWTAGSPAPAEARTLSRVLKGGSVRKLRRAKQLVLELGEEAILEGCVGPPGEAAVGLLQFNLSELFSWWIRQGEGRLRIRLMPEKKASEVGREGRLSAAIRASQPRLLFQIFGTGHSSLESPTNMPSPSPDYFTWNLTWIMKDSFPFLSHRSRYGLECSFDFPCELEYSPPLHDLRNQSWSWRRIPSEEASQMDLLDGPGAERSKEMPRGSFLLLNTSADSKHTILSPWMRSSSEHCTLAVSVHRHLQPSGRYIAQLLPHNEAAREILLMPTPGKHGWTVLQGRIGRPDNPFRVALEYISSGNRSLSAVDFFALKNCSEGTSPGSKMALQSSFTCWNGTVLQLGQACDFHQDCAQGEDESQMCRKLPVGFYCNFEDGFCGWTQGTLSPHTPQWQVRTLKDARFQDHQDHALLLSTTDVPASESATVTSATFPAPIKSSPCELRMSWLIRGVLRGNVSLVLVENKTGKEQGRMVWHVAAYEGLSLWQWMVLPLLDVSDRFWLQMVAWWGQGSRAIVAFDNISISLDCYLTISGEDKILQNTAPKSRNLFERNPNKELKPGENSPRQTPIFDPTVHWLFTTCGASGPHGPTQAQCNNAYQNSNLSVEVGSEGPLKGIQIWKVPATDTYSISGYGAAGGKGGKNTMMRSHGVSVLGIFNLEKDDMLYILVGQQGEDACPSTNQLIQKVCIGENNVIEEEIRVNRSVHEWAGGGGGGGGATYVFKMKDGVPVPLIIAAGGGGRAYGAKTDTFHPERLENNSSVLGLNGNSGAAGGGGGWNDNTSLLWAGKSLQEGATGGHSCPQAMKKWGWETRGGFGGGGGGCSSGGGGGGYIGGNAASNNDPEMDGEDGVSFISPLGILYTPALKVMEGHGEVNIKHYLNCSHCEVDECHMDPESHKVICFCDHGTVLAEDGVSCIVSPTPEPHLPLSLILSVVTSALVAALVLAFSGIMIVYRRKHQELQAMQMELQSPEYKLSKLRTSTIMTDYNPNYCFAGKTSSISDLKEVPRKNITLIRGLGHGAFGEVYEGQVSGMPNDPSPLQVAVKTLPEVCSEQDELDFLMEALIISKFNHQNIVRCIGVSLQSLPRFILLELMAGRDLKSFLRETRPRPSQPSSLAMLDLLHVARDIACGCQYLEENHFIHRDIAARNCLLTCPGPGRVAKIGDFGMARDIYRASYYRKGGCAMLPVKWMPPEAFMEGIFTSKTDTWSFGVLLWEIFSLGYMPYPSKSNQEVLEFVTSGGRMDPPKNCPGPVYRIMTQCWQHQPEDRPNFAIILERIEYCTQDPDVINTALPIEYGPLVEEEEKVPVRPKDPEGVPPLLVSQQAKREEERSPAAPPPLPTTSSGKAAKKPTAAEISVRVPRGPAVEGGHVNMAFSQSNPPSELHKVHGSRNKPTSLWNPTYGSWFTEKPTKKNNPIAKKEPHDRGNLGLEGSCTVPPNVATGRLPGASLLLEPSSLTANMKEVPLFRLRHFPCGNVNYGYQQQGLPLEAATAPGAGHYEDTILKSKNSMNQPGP
Description for Histone deacetylase 2: Inhibition of HDAC2 (unknown origin)

`CC(C)S(=O)(=O)c1ccccc1Nc1nc(Nc2ccc(NC(=O)CCCCCCC(=O)NO)cc2)ncc1Cl`: the inhibition result in [1], in series [2], in [3], in series [8] and in series [9] was “Active” throughout. In addition, in the series on SH-SY5Y, the viability at 4 µM was determined as 38.3%. Further, the IC50 with MDA-MB-231 [4] is 0.46 µM; at Histone deacetylase 2 it was 0.0093 µM. Besides, in series [5], the Ratio IC50 is 10. Besides, in the series with MDA-MB-231 [6], the Activity stood at 4.42%. In series [7], the inhibition result is “Dose-Dependent Effect”. In series [10], this compound registered an AUC(0-inf) of 205 ng·h/mL.
